Measured values: patent US20250001107A1, “BREATH-POWERED NASAL DEVICES FOR TREATMENT OF TRAUMATIC BRAIN INJURY (TBI), INCLUDING CONCUSSION, AND METHODS” (Oragenics, Inc., priority 2021, published 2025)

Experiments:
[1] = blood-brain barrier crossing
[2] = tested on: Animal models of concussion; assay: animal models of concussion, behavioral pathology; assay type: in vivo
lipophilicity = assay type: physicochemical
[3] = preclinical studies of neuroprotective effects; assay type: in vivo

CC(=O)[C@@H]1CCC2C3CCC4=CC(=O)CC[C@H]4C3CC[C@]21C (single isomer, unassigned) [ent-19-norprogesterone, ent-19-norpregn-4-ene-3,20-dione]
crossing of the blood-brain barrier [1]: can easily cross the blood-brain barrier
behavioral pathology associated with brain injury symptoms [2]: reduces the behavioral pathology associated with brain injury symptoms such as memory impairment, anxiety, and motor/sensory performance
lipophilicity (lipophilicity): lipophilic
neuroprotective effects compared to related neurosteroids [3]: equivalent, if not superior, neuroprotective effects compared to related neurosteroids
